The text below walks through data of patent US20240270699A1, “COMPOUNDS HAVING N-ARYLPYRIMIDIN-2-AMINE DERIVATIVES AS THERAPEUTIC AGENTS” (Lomond Therapeutics, Inc., priority 2021, published 2024).

As usually defined, the IC50 is the point on the concentration scale where inhibition reaches its midpoint.

Assay [1] concerns the target T1, recombinant HPK1 protein (Homo sapiens, UniProt Q92918).
T1 construct: purchased Promega V6398
T1 sequence (Q92918 1-346 limits assumed): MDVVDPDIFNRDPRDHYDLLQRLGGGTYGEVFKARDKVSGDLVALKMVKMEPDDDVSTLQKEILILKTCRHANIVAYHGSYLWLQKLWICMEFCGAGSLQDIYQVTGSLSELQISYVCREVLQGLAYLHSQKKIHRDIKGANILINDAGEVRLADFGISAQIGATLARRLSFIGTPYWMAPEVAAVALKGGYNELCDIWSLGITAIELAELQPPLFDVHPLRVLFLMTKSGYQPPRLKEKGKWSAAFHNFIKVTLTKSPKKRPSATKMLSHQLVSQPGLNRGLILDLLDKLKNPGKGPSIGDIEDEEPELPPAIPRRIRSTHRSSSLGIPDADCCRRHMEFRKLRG
Briefly: Primary assay of HPK1 enzymatic activity inhibition (ADP-Glo luminescence). Type of assay: biochemical. The conditions noted are these: recombinant HPK1, MBP substrate, 1 hour at room temperature.

The test system of assay [2] is Jurkat cells. Briefly: IL-2 release Jurkat assay (anti-CD3/anti-CD28 stimulation, IL-2 ELISA). Format: cell-based, human. Conditions: activation with 400 ng/mL aCD3 + 400 ng/mL aCD28, 24 hours. For orientation: ELISA stands for enzyme-linked immunosorbent assay.
[3] abbreviates: Table B: Jurkat, 1.5 μM of tested compounds.
Where [4] appears, read: Table D: Jurkat, 6 μM of tested compounds, stimulated vehicle = B.
The mark [5] stands for this setting: Table E: Jurkat, 1.5 μM of tested compounds.
Setting [6] is: Table G: Jurkat, 1.0 μM of tested compounds.
Setting [7] is: Table F: Jurkat, 1.0 μM of tested compounds.

`COCCNC(=O)c1cnc(Nc2ccc(S(C)(=O)=O)c(F)c2)nc1N[C@H](CO)c1ccccc1` [Compound 401, 2-(3-fluoro-4-methylsulfonyl-anilino)-4-[[(1S)-2-hydroxy-1-phenyl-ethyl]amino]-N-(2-methoxyethyl)-pyrimidine-5-carboxamide]: in assay [1], the IC50 was 0.05 to 0.2 µM. Further, the “IL-2, pg/mL stimulated” value in assay [2] (Table C: Jurkat, 6 μM of tested compounds, stimulated vehicle = A) is recorded as “A (IL-2<50 pg/mL)”.

On to `Cc1cc(Nc2ncc(C(=O)NC3CCCC3)c(N[C@H](CO)c3ccccc3)n2)ccc1S(C)(=O)=O` [Compound 434, N-cyclopentyl-4-{[(1S)-2-hydroxy-1-phenylethyl]amino}-2-{[3-methyl-4-(methylsulfonyl)phenyl]amino}pyrimidine-5-carboxamide], for which the IC50 in assay [1] lay in the range of 0.2 to 0.5 µM. Further, the “IL-2, pg/mL stimulated” value in assay [2] (setting [3]) was “B (5.0 pg/mL≤IL-2<25.0 pg/mL)”.

Regarding `Cc1cc(Nc2ncc(C(=O)NCC(F)(F)F)c(N[C@H](CO)c3ccccc3)n2)ccc1S(C)(=O)=O` [Compound 490, 4-{[(1S)-2-hydroxy-1-phenylethyl]amino}-2-{[3-methyl-4-(methylsulfonyl)phenyl]amino}-N-(2,2,2-trifluoroethyl)pyrimidine-5-carboxamide], the 50% inhibitory concentration (IC50) in assay [1] is under 0.05 µM. Moreover, in assay [2] (setting [3]), the “IL-2, pg/mL stimulated” value is given as “B (5.0 pg/mL≤IL-2<25.0 pg/mL)”.

`O=C(NCC(F)(F)F)c1cnc(Nc2ccc(F)c(-c3ccccc3)c2)nc1N[C@H](CO)c1ccccc1` [Compound 499, 2-[(6-fluorobiphenyl-3-yl)amino]-4-{[(1S)-2-hydroxy-1-phenylethyl]-amino}-N-(2,2,2-trifluoroethyl)pyrimidine-5-carboxamide]: the IC50 in assay [1] fell in the range of 0.2 to 0.5 µM. Further, the “IL-2, pg/mL stimulated” value in assay [2] (setting [3]) is reported as “C (25.0 pg/mL≤IL-2<35.0 pg/mL)”.

In the case of `CCOC(=O)c1cnc(Nc2ccc(C(N)=O)c(Cl)c2)nc1N[C@H](CO)c1ccccc1` [Compound 559, Ethyl 2-(4-carbamoyl-3-chloro-anilino)-4-[[(1S)-2-hydroxy-1-phenyl-ethyl]amino]pyrimidine-5-carboxylate], in assay [1], the IC50 is under 0.05 µM. In addition, in assay [2] (setting [4]), the “IL-2, pg/mL stimulated” value is on record as “D (150 pg/mL≤IL-2)”.

As for `CCOC(=O)c1cnc(Nc2ccc(C(=O)NC)c(Cl)c2)nc1N[C@H](CO)c1ccccc1` [Compound 560, Ethyl 2-[3-chloro-4-(methylcarbamoyl)anilino]-4-[[(1S)-2-hydroxy-1-phenyl-ethyl]amino]pyrimidine-5-carboxylate], the IC50 in assay [1] lay in the range of 0.05 to 0.2 µM. In addition, the “IL-2, pg/mL stimulated” value in assay [2] (setting [4]) is given as “D (150 pg/mL≤IL-2)”.

Consider `CCOC(=O)CCCCCc1nnc(-c2cnc(Nc3ccc(S(C)(=O)=O)c(C)c3)nc2N[C@H](CO)c2ccccc2)o1` [Compound 561, Ethyl 6-[5-[4-[[(1S)-2-hydroxy-1-phenyl-ethyl]amino]-2-(3-methyl-4-methylsulfonyl-anilino)pyrimidin-5-yl]-1,3,4-oxadiazol-2-yl]hexanoate], for which the IC50 in assay [1] fell in the range of 0.05 to 0.2 µM. Moreover, the “IL-2, pg/mL stimulated” value in assay [2] (setting [4]) is listed as “B (50 pg/mL≤IL-2<100 pg/mL)”.

As to `CS(=O)(=O)c1cnc(Nc2ccc3c(c2)CCNC3=O)nc1N[C@H](CO)c1ccccc1` [Compound 564, 6-[[4-[[(1S)-2-hydroxy-1-phenyl-ethyl]amino]-5-methylsulfonyl-pyrimidin-2-yl]amino]-3,4-dihydro-2H-isoquinolin-1-one], the IC50 in assay [1] was under 0.05 µM. Besides, in assay [2] (setting [3]), the “IL-2, pg/mL stimulated” value is “B (5.0 pg/mL≤IL-2<25.0 pg/mL)”.

For the compound `CCOC(=O)c1cnc(Nc2ccc3c(c2)CCCNC3=O)nc1N[C@H](CO)c1ccccc1` [Compound 566, ethyl 4-[[(1S)-2-hydroxy-1-phenyl-ethyl]amino]-2-[(1-oxo-2,3,4,5-tetrahydro-2-benzazepin-7-yl)amino]pyrimidine-5-carboxylate], the half-inhibitory concentration (IC50) in assay [1] was under 0.05 µM. Besides, the “IL-2, pg/mL stimulated” value in assay [2] (setting [5]) is recorded as “D (150 pg/mL≤IL-2)”.

Turning to `CCOC(=O)c1cnc(Nc2ccc3c(c2)CCNC3=O)nc1N[C@@H](CO)c1ccccc1` [Compound 568, ethyl 4-[[(1R)-2-hydroxy-1-phenyl-ethyl]amino]-2-[(1-oxo-3,4-dihydro-2H-isoquinolin-6-yl)amino]pyrimidine-5-carobxylate], in assay [1], the IC50 lay within 0.05 to 0.2 µM. Besides, the “IL-2, pg/mL stimulated” value in assay [2] (setting [3]) was “A (IL-2<5.0 pg/mL)”.

Consider `CCOC(=O)c1cnc(Nc2ccc3c(c2)CCNC3=O)nc1N[C@H](CO)c1ccc(OC)cc1` [Compound 569, ethyl 4-[[(1S)-2-hydroxy-1-(4-methoxyphenyl)ethyl]amino]-2-[(1-oxo-3,4-dihydro-2H-isoquinolin-6-yl)amino]pyrimidine-5-carboxylate], for which the IC50 in assay [1] is under 0.05 µM. The “IL-2, pg/mL stimulated” value in assay [2] (setting [3]) is on record as “C (25.0 pg/mL≤IL-2<35.0 pg/mL)”.

As to `CCOC(=O)c1cnc(Nc2ccc3c(c2)CCNC3=O)nc1N[C@H](CO)c1cccc(OC)c1` [Compound 570, ethyl 4-[[(1S)-2-hydroxy-1-(3-methoxyphenyl)ethyl]amino]-2-[(1-oxo-3,4-dihydro-2H-isoquinolin-6-yl)amino]pyrimidine-5-carboxylate], in assay [1], the IC50 is under 0.05 µM. For the same compound, the “IL-2, pg/mL stimulated” value in assay [2] (setting [3]) is “B (5.0 pg/mL≤IL-2<25.0 pg/mL)”.

Consider `CCOC(=O)c1cnc(Nc2ccc3c(c2)CCCS3(=O)=O)nc1N[C@H](CO)c1ccccc1` [Compound 573, ethyl 2-[(1,1-dioxo-3,4-dihydro-2H-thiochromen-6-yl)amino]-4-[[(1S)-2-hydroxy-1-phenyl-ethyl]amino]pyrimidine-5-carboxylate], for which the IC50 in assay [1] was under 0.05 µM. Further, the “IL-2, pg/mL stimulated” value in assay [2] (setting [5]) is recorded as “C (100 pg/mL≤IL-2<150 pg/mL)”.

Turning to `COc1cccc([C@@H](CO)Nc2nc(Nc3ccc4c(c3)CCNC4=O)ncc2-c2nc(C)no2)c1` [Compound 575, 6-[[4-[[(1S)-2-hydroxy-1-(3-methoxyphenyl)ethyl]amino]-5-(3-methyl-1,2,4-oxadiazol-5-yl)pyrimidin-2-yl]amino]-3,4-dihydro-2H-isoquinolin-1-one], the IC50 in assay [1] was under 0.05 µM. For the same compound, the “IL-2, pg/mL stimulated” value in assay [2] (setting [5]) is recorded as “C (100 pg/mL≤IL-2<150 pg/mL)”.

Take `Cc1noc(-c2cnc(Nc3ccc4c(c3)CC(C)(C)NC4=O)nc2N[C@H](CO)c2ccccc2)n1` [Compound 578, 6-[[4-[[(1S)-2-hydroxy-1-phenyl-ethyl]amino]-5-(3-methyl-1,2,4-oxadiazol-5-yl)pyrimidin-2-yl]amino]-3,3-dimethyl-2,4-dihydroisoquinolin-1-one]: the IC50 in assay [1] is under 0.05 µM. In assay [2] (setting [6]), the “IL-2, pg/mL stimulated” value is “C (100 pg/mL≤IL-2<150 pg/mL)”.

On to `Cc1noc(-c2cnc(Nc3ccc4c(c3)C(C)(C)NC4=O)nc2N[C@H](CO)c2ccccc2)n1` [Compound 579, 5-[[4-[[(1S)-2-hydroxy-1-phenyl-ethyl]amino]-5-(3-methyl-1,2,4-oxadiazol-5-yl)pyrimidin-2-yl]amino]-3,3-dimethyl-isoindolin-1-one], for which the IC50 in assay [1] is under 0.05 µM. The “IL-2, pg/mL stimulated” value in assay [2] (setting [7]) is given as “A (IL-2<50 pg/mL)”.

For `Cc1noc(-c2cnc(Nc3ccc4c(c3)CCN(COCC[Si](C)(C)C)C4=O)nc2N[C@H](CO)c2ccccc2)n1` [Compound 582, 6-[[4-[[(1S)-2-hydroxy-1-phenyl-ethyl]amino]-5-(3-methyl-1,2,4-oxadiazol-5-yl)pyrimidin-2-yl]amino]-2-(2-trimethylsilylethoxymethyl)-3,4-dihydroisoquinolin-1-one], the IC50 in assay [1] was 0.05 to 0.2 µM. Further, the “IL-2, pg/mL stimulated” value in assay [2] (setting [7]) was “B (50 pg/mL≤IL-2<100 pg/mL)”.

As to `CN(C)Cc1noc(-c2cnc(Nc3ccc4c(c3)CCCS4(=O)=O)nc2N[C@H](CO)c2ccccc2)n1` [Compound 583, (2S)-2-[[5-[3-[(dimethylamino)methyl]-1,2,4-oxadiazol-5-yl]-2-[(1,1-dioxo-3,4-dihydro-2H-thiochromen-6-yl)amino]pyrimidin-4-yl]amino]-2-phenyl-ethanol], in assay [1], the IC50 is under 0.05 µM. In addition, in assay [2] (setting [7]), the “IL-2, pg/mL stimulated” value was “B (50 pg/mL≤IL-2<100 pg/mL)”.

Consider `Cn1cc(-c2cnc(Nc3ccc4c(c3)CCNC4=O)nc2N[C@H](CO)c2ccccc2)cn1` [Compound 584, 6-[[4-[[(1S)-2-hydroxy-1-phenyl-ethyl]amino]-5-(1-methylpyrazol-4-yl)pyrimidin-2-yl]amino]-3,4-dihydro-2H-isoquinolin-1-one], for which the IC50 in assay [1] is under 0.05 µM. Also, the “IL-2, pg/mL stimulated” value in assay [2] (setting [7]) is “A (IL-2<50 pg/mL)”.

On to `CN(C)Cc1noc(-c2cnc(Nc3ccc4c(c3)CNC4=O)nc2N[C@H](CO)c2ccccc2)n1` [Compound 585, 5-[[5-[3-[(dimethylamino)methyl]-1,2,4-oxadiazol-5-yl]-4-[[(1S)-2-hydroxy-1-phenyl-ethyl]amino]pyrimidin-2-yl]amino]isoindolin-1-one], for which the IC50 in assay [1] is under 0.05 µM. In addition, the “IL-2, pg/mL stimulated” value in assay [2] (setting [6]) is reported as “D (150 pg/mL≤IL-2)”.

With `O=S1(=O)CCCc2cc(Nc3ncc(-c4nc(CN5CCCC5)no4)c(N[C@H](CO)c4ccccc4)n3)ccc21` [Compound 586, (2S)-2-[[2-[(1,1-dioxo-3,4-dihydro-2H-thiochromen-6-yl)amino]-5-[3-(pyrrolidin-1-ylmethyl)-1,2,4-oxadiazol-5-yl]pyrimidin-4-yl]amino]-2-phenyl-ethanol], the IC50 in assay [1] is under 0.05 µM. Also, in assay [2] (setting [6]), the “IL-2, pg/mL stimulated” value is given as “D (150 pg/mL≤IL-2)”.
